In US20240246937A1 (MERCK SHARP & DOHME LLC, priority 2021, published 2024):

The compounds below were run against recombinant IL4I1 (Homo sapiens (Human), UniProt Q96RQ9) (assay: IL4I1 Enzymatic Assay (Amplex Red/HRP coupled fluorescence detection of H2O2)). Details: 240 min; recombinant IL4I1, four-hour pre-incubation with compound.
Type: biochemical
Outline: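 Ten-point, 1:3 compound titrations were fitted by four-parameter sigmoidal regression to give EC50. Resorufin fluorescence (544/590 nm) from Amplex Red/HRP-coupled H2O2 detection was read 120 min after adding 1 mM each aromatic amino acid to 1 nM IL4I1, following a 4 h compound pre-incubation in pH 7.0 Hepes buffer.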

Chain of recombinant IL4I1 (Q96RQ9 22-567): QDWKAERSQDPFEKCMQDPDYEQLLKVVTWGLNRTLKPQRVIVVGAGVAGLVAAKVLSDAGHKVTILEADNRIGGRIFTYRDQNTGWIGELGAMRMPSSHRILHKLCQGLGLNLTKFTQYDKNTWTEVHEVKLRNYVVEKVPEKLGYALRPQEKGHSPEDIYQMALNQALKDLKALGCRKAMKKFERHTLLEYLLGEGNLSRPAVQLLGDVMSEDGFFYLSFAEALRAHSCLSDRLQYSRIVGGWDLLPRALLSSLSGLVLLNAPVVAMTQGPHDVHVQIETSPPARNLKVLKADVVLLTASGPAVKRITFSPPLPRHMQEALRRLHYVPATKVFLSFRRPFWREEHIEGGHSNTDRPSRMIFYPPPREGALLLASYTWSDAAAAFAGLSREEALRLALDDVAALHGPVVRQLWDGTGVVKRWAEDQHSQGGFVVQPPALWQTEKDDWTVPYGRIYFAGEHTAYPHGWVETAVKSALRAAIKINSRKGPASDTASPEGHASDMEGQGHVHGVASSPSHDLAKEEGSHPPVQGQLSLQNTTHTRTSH

SMILES	EC50 [nM]
CC1(n2ccn(Cc3cc(-c4ccccn4)on3)c(=O)c2=O)CC1 [Example 206, 1-(1-methylcyclopropyl)-4-((5-(pyridin-2-yl)isoxazol-3-yl)methyl)-1,4-dihydropyrazine-2,3-dione]	28
CC1(N2CCN(Cc3cc(-c4ccc(F)cc4)no3)C(=O)C2=O)CCC1 [Example 188, 1-((3-(4-fluorophenyl)isoxazol-5-yl)methyl)-4-(1-methylcyclobutyl)piperazine-2,3-dione]	10
CC1CCC(N2CCN(Cc3ncc(-c4ccccc4)cn3)C(=O)C2=O)C1 (single isomer, unassigned) [Example 344, (R or S, R or S)-1-(3-methylcyclopentyl)-4-((5-phenylpyrimidin-2-yl)methyl)piperazine-2,3-dione]	49
O=C1C(=O)N(C2CCC2)CCN1Cc1ccc(-n2nccn2)nc1 [Example 113, 1-((6-(2H-1,2,3-triazol-2-yl)pyridin-3-yl)methyl)-4-cyclobutylpiperazine-2,3-dione]	15
O=c1c(=O)n(C23CC(C2)C3)ccn1Cc1cc(-c2nccs2)on1 [Example 187, 1-(bicyclo[1.1.1]pentan-1-yl)-4-((5-(thiazol-2-yl)isoxazol-3-yl)methyl)-1,4-dihydropyrazine-2,3-dione]	8
O=C1C(=O)N(C23CC(C2)C3)CCN1Cc1nnc(-c2ccccc2F)s1 [Example 31, 1-(bicyclo[1.1.1]pentan-1-yl)-4-((5-(2-fluorophenyl)-1,3,4-thiadiazol-2-yl)methyl)piperazine-2,3-dione]	6
O=C1C(=O)N(C23CC(C2)C3)CCN1Cc1ccc(-n2ccnn2)nn1 [Example 402, 1-((6-(1H-1,2,3-triazol-1-yl)pyridazin-3-yl)methyl)-4-(bicyclo[1.1.1]pentan-1-yl)piperazine-2,3-dione]	36
O=C1C(=O)N(C2CCC2)CCN1Cc1ccc(-n2nccn2)cc1 [Example 399, 1-(4-(2H-1,2,3-triazol-2-yl)benzyl)-4-cyclobutylpiperazine-2,3-dione]	19
O=C1C(=O)N(CC2CCC2)CCN1Cc1ncc(-c2ccccc2)cn1 [Example 281, 1-(cyclobutylmethyl)-4-((5-phenylpyrimidin-2-yl)methyl)piperazine-2,3-dione]	35
O=C1C(=O)N(C2CCCC2)CCN1Cc1cc(-c2ccccc2F)on1 [Example 60, 1-cyclopentyl-4-((5-(2-fluorophenyl)isoxazol-3-yl)methyl)piperazine-2,3-dione]	10
O=c1c(=O)n(C23CC(F)(C2)C3)ccn1Cc1cc(-c2ccccn2)no1 [Example 203, 1-(3-fluorobicyclo[1.1.1]pentan-1-yl)-4-((3-(pyridin-2-yl)isoxazol-5-yl)methyl)-1,4-dihydropyrazine-2,3-dione]	19
O=c1c(=O)n(C2CCC2)ccn1Cc1cc(-c2ccccc2)sn1 [Example 173, 1-cyclobutyl-4-((5-phenylisothiazol-3-yl)methyl)-1,4-dihydropyrazine-2,3-dione]	14
O=c1c(=O)n(C2CCCC2)ccn1Cc1cc(-c2ccc(F)cc2)no1 [Example 164, 1-cyclopentyl-4-((3-(4-fluorophenyl)isoxazol-5-yl)methyl)-1,4-dihydropyrazine-2,3-dione]	1
CC1(n2ccn(Cc3ccc(-n4cccn4)nc3)c(=O)c2=O)CC1 [Example 383, 1-((6-(1H-pyrazol-1-yl)pyridin-3-yl)methyl)-4-(1-methylcyclopropyl)-1,4-dihydropyrazine-2,3-dione]	26
O=C1C(=O)N(C2CCCC2)CCN1Cc1ccc(N2CCC2)nn1 [Example 318, 1-((6-(azetidin-1-yl)pyridazin-3-yl)methyl)-4-cyclopentylpiperazine-2,3-dione]	36
O=c1c(=O)n(C23CC(F)(C2)C3)ccn1Cc1ccc(-n2cccn2)cn1 [Example 219, 1-((5-(1H-pyrazol-1-yl)pyridin-2-yl)methyl)-4-(3-fluorobicyclo[1.1.1]pentan-1-yl)-1,4-dihydropyrazine-2,3-dione]	59
O=c1c(=O)n(C2(CF)CC2)ccn1Cc1ccc(-n2cccn2)cn1 [Example 218, 1-((5-(1H-pyrazol-1-yl)pyridin-2-yl)methyl)-4-(1-(fluoromethyl)cyclopropyl)-1,4-dihydropyrazine-2,3-dione]	56
O=C1C(=O)N([C@H]2C[C@@H](c3ccccc3)C2)CCN1Cc1ccc(-n2ccnn2)nn1 [Example 327, 1-((6-(1H-1,2,3-triazol-1-yl)pyridazin-3-yl)methyl)-4-((cis)-3-phenylcyclobutyl)piperazine-2,3-dione]	16
N#CC1(n2ccn(Cc3ccc(-n4nccn4)nn3)c(=O)c2=O)CC1 [Example 333, 1-(4-((6-(2H-1,2,3-triazol-2-yl)pyridazin-3-yl)methyl)-2,3-dioxo-3,4-dihydropyrazin-1(2H)-yl)cyclopropane-1-carbonitrile]	94
O=c1c(=O)n(C23CC(C2)C3)ccn1Cc1cc(-c2cccc(F)c2)on1 [Example 417, 1-(bicyclo[1.1.1]pentan-1-yl)-4-((5-(3-fluorophenyl)isoxazol-3-yl)methyl)-1,4-dihydropyrazine-2,3-dione]	2
O=c1c(=O)n(C2CCC2)ccn1Cc1nnc(-c2ccccc2)s1 [Example 396, 1-cyclobutyl-4-((5-phenyl-1,3,4-thiadiazol-2-yl)methyl)-1,4-dihydropyrazine-2,3-dione]	5
CC12CC(N3CCN(Cc4nnc(-c5ccccc5)s4)C(=O)C3=O)(CO1)C2 [Example 296, 1-(1-methyl-2-oxabicyclo[2.1.1]hexan-4-yl)-4-((5-phenyl-1,3,4-thiadiazol-2-yl)methyl)piperazine-2,3-dione]	63
O=c1c(=O)n(C2(CF)CC2)ccn1Cc1ccc(-n2cccn2)nc1 [Example 231, 1-((6-(1H-pyrazol-1-yl)pyridin-3-yl)methyl)-4-(1-(fluoromethyl)cyclopropyl)-1,4-dihydropyrazine-2,3-dione]	22
O=C1C(=O)N(C2CCCC2)CCN1Cc1cc2ccccc2[nH]c1=O [Example 354, 1-cyclopentyl-4-((2-oxo-1,2-dihydroquinolin-3-yl)methyl)piperazine-2,3-dione]	20
O=c1c(=O)n(C2(CF)CC2)ccn1Cc1ccc(-c2ccccc2F)nn1 [Example 242, 1-(1-(fluoromethyl)cyclopropyl)-4-((6-(2-fluorophenyl)pyridazin-3-yl)methyl)-1,4-dihydropyrazine-2,3-dione]	32
O=C1C(=O)N(C2CCC2)C2CCCC2N1Cc1ccc(-c2ccccc2)nn1 (single isomer, unassigned) [Example 435B, (S,R or S,R)-1-cyclobutyl-4-((6-phenylpyridazin-3-yl)methyl)hexahydro-1H-cyclopenta[b]pyrazine-2,3-dione]	76
O=C1C(=O)N(C23CC(F)(C2)C3)CCN1Cc1cc(-c2cccnc2)no1 [Example 240, 1-(3-fluorobicyclo[1.1.1]pentan-1-yl)-4-((3-(pyridin-3-yl)isoxazol-5-yl)methyl)piperazine-2,3-dione]	995
O=c1c(=O)n(C2CCCC2)ccn1Cc1nnc(-c2cccc(F)c2)s1 [Example 145, 1-cyclopentyl-4-((5-(3-fluorophenyl)-1,3,4-thiadiazol-2-yl)methyl)-1,4-dihydropyrazine-2,3-dione]	1
